US6623741B1, “Methods and compositions for inhibition of membrane fusion-associated events including RSV transmission” (Trimeris, Inc., priority 2000, dated 2003)
Several values for one entry are separate records, joined by “and”; a condition that tells them apart may be missing. Equal entries are not always repeated.

Assays:
[1] = molecular target: T1, DP107-like domain of the RSV F1-protein (MF5.1 fusion protein) (Human respiratory syncytial virus A, UniProt P03420); assay: biochemical; format: binding; details: binding affinity for the DP107-like domain of RSV F1 protein
T1 construct: made in house
T1 sequence (P03420 142-302): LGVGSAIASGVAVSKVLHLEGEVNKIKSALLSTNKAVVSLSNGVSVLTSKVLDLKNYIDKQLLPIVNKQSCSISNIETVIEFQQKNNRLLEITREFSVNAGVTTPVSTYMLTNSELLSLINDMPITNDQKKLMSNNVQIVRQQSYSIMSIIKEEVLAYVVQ
Method: After incubation and washing, unbound Fab-d is removed from the plates and bound Fab-d is quantitated. A no-inhibitor control should also be conducted.
Such an assay takes advantage of accepted radioligand and receptor binding principles. (See, for example, Yamamura, H. I. et al., 1985, “Neurotransmitter Receptor Binding”, 2nd ed., Raven Press, NY.) As above, M41Δ78 is immobilized onto a solid support such as a microtiter well. […] Specific binding to M41Δ78 is defined as the difference of the binding of the labeled DP178 preparation in the microtiter wells (totals) and the binding in identical wells containing, in addition, excess unlabeled DP178 (nonspecifics).
Specifically, the DNA sequence corresponding amino acid residues 142-302 of the RSV F1 protein was amplified by PCR and cloned into the Xmn I site of the expression vector pMal-p2 (New England Biolab) to give MF5.1. These amino acid residues correspond to the extracellular domain of the RSV F1 protein including its DP107 region but excluding the DP178 region.
Cell fusion assays were performed with each of the peptides as described in Section 17 above.

HR1 domain of RSV-F1 [2] = molecular target: T2, HR1 domain of RSV-F1 (Human respiratory syncytial virus A, UniProt P03420); format: binding
T2 construct: made in house
T2 sequence (P03420 142-302): as above
Method: Proteinase-K Protection Experiments:
(§1) Mixtures were treated with 5 μg/ml proteinase-K (Sigma, St. Louis, Mo.) or an equivalent volume of buffer, vortexed and then incubated for one hour at 37° C. Phenyl methyl sulfonyl fluoride (PMSF, Boehringer Mannheim, Indianapolis, Ind.) was added to achieve a 2 mM final concentration to stop proteolytic digestion. 20 μl of each sample was removed and added to 10 μl of a sample buffer (New England Biolabs, Boston, Mass.) containing 6 w/v% Sodium Dodecyl Sulfate (DDS), DTT, 187.5 mM TRIS, 30% glycerol and bromophenol blue. The mixtures were heated for five minutes at 90° C. 15 μl of the samples were run on a 10-20% Tricine polyacrylamide gel (Novex, San Diego, Calif.), stained with Coomassie brilliant blue and destained with a 10% methanol-10% acetic acid mixture (Fisher, Norcross, Ga.).

HR1 domain of RSV-F1 [3] = format: binding, respiratory syncytial virus; details: 5 μg/ml proteinase-K, one hour at 37° C.
Method: Proteinase-K Protection Experiments:
as §1

[4] = Circular dichroism spectroscopy (helicity, thermal stability); format: physicochemical; details: 10 and 50 μM
Method: Circular Dichroism Spectroscopy:
Circular Dichroism (CD) spectra were obtained using an AVIV Associates 62DS spectrometer equipped with a thermoelectric temperature controller. Spectra were obtained in 0.1, 0.5 and 1.0 cm quartz cells at 1° C. with 0.5 nm steps from 200 to 260 nm, 1.5 nm bandwidth and an averaging time of 4 sec/step. After the cell/buffer blank was subtracted, spectra were smoothed using a third-order least-squares polynomial fit with a conservative (5-10 point) window size to give random residuals. Mixing experiments were performed by comparing the spectrum of the two peptides mixed together in a 0.1 cm path length cell at the desired concentrations (referred to herein as the “experimental” spectrum) to the sum of the individual spectra of the peptides, each solution in a 0.1 cm path length cell (referred to herein as the “model spectrum” for no peptide interaction or “model for no interaction”).
Raw ellipticity values were converted to mean residue ellipticity using standard methods (Cantor & Schimmel, 1980, Biophysical Chemistry Part II: Techniques for the Study of Biological Structure and Function, W.H. Freeman and Co., New York). Conversions for the mixing experiment spectra were performed using a peptide length corresponding to the average of the two peptides. Thermal stability measurements were performed in 2° C. steps, with 1 minute equilibration times. Spectra were smoothed, converted to mean residue ellipticity, and the corresponding value at 222 nm noted from each spectrum. Percent helicity values were calculated using single value decomposition with a basis set of 33 protein spectra (Johnson & Curtis, 1990, Proteins: Structure, Function and Genetics 7:205-214).

[5] = Analytical ultracentrifugation (sedimentation equilibrium); format: physicochemical
Method: Analytical Ultracentrifugation:
Sedimentation equilibrium experiments were performed on a Beckman Optima XL-A analytical ultracentrifuge at 4° C. Six-channel cells (12 mm optical path length) were used with an An-60 Ti rotor operated at 13,500, 16,000, 17,000, 20,000, 21,000, 24,000, 25,000, 27,500, 30,000 and 35,000 rpm. The cell radii were scanned using 0.001 cm steps with 10 averages/scan. Data were analyzed using Beckman XLA data analysis software (version 3.01 for Windows) and Beckman-Origin software (version 3.78 for Windows). […] The partial specific volumes were held constant for all models considered.
Single data files were normalized to 270 nm absorbance values using Beer's Law. The data obtained with solutions containing the DP107-like peptides were then analyzed using a single ideal species model to determine a weight-averaged molecular weight (Mw). Diagnostic plots of Mw/Mw0 vs. rpm/rpm0 and Mw vs. radial concentration were used to test for sample homogeneity as described, e.g., by McRorie & Voelker, 1993, Self-Associating Systems in the Analytical Ultracentrifuge, Beckman Instruments, Inc., Palo Alto; and Yphantis et al., 1978, in Physical Aspects of Protein Interactions: Proceedings of the Symposium on Protein Interactions, American Chemical Society Meeting, Catsimpoolas, Ed., pp. 275-303, Elsevier, Miami Beach, Fla. When systematic residuals or a Mw higher than the monomer molecular weight indicated the presence of self-association, associative models such as monomer/trimer, monomer/tetramer and monomer/dimer/tetrarner were investigated. The suitability of a particular model (i.e., the goodness of fit) was judged by the trends observed in the residuals (Johnson & Straume, 1994, in Modern Analytical Ultracentrifugation, Schuster et al., eds., pp. 37-65, Birkhauser, Boston). Using the associative model which produced random residuals when fitting individual data files, a simultaneous, global, weighted fit of multiple data files (up to nine files with different concentrations and speeds) was performed to determine the association constant and 95% confidence intervals. To convert the resulting association constant from absorbance units to concentration units, it was assumed that the absorbance of the n-mer is n times that of the monomer.
The data obtained with DP107-like/DP178-like peptide mixtures were first analyzed with a single ideal species model. When a systematic trend in residuals coupled with the Mw not equal to a precise multimer of HR1+HR2 were obtained, and alternate fitting scheme was explored. For this approach, it was assumed that the solution contained fully associated HR1-HR2 complexes and unassociated DP107-like and DP178-like peptides. The mixtures were analyzed with a two-ideal species model, choosing one species to have a molecular weight of either 28,269 Da (corresponding to three DP107-like plus three DP178-like peptides) or […] (corresponding to four DP107-like plus four DP178-like peptides).

CC[C@H](C)[C@H](NC(=O)[C@H](Cc1ccccc1)NC(=O)[C@H](C)NC(=O)[C@H](CC(C)C)NC(=O)[C@H](CO)NC(=O)[C@H](CCC(N)=O)NC(=O)[C@H](CC(N)=O)NC(=O)[C@@H](NC(=O)[C@H](CCCCN)NC(=O)[C@H](CCC(=O)O)NC(=O)[C@H](CC(N)=O)NC(=O)[C@@H](NC(=O)[C@H](CCC(N)=O)NC(=O)[C@H](CO)NC(=O)[C@@H](NC(=O)[C@H](CO)NC(=O)[C@H](C)NC(=O)[C@H](CC(=O)O)NC(=O)[C@H](Cc1ccccc1)NC(=O)[C@H](CCC(=O)O)NC(=O)[C@H](CC(=O)O)NC(=O)[C@H](CO)NC(=O)[C@@H]1CCCN1C(=O)[C@H](Cc1ccccc1)NC(=O)[C@@H](NC(C)=O)C(C)C)[C@@H](C)CC)C(C)C)[C@@H](C)CC)C(=O)N[C@@H](CCCNC(=N)N)C(=O)N[C@@H](CCCCN)C(=O)N[C@@H](CO)C(=O)N[C@@H](CC(=O)O)C(=O)N[C@@H](CCC(=O)O)C(=O)N[C@@H](CC(C)C)C(=O)N[C@@H](CC(C)C)C(=O)N[C@@H](Cc1c[nH]cn1)C(=O)N[C@@H](CC(N)=O)C(=O)N[C@H](C(N)=O)C(C)C [Peptide T112]
Kd [1]: 2 nM and 1 nM
binding to the HR1 domain of RSV-F1 and protection from proteolytic digestion (HR1 domain of RSV-F1 [2]): binds to the HR1 domain of RSV-F1 and thereby protects the domain from proteolytic digestion
proteinase-K digestion of the peptide alone (HR1 domain of RSV-F1 [3]): digest the peptide entiretly
thermal stability (CD melting curves, in words) [4]: little thermal stability
helicity ([4]; PBS solution): less than 10%
oligomerization state in solution (in words) [5]: behaves as a monomer
Mw value ([5]; 50 μM, 25,000, 30,000 and 35,000 rpm): 3,984 Da
